Source: the supplement of paper PMC10307832

Key:
Test in all cases: relative viability (nuclei count vs DMSO), 5 days (fraction); higher = more cells survive
[1] = compound: NC(=O)[C@@H](CCC(F)(F)F)N(Cc1ccc(-c2ncon2)cc1F)S(=O)(=O)c1ccc(Cl)cc1 [Avagacestat]
How it was run: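 Following overnight incubation at 37 °C, lung cancer cell lines in 1536-well plates were pinned with five library-drug doses (not always all listed) in √10 steps on vehicle-anchored plates. The cells then spent 5 days without medium change before a combined fix, permeabilisation and Hoechst stain, 4× imaging and MetaXpress nuclear counts. Viability is the treated-to-vehicle ratio of nuclei, taken as the median across plates. Only plates with control CV below 25% and at least one doubling passed.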

[2] = compound: NC(=O)[C@@H](CCC(F)(F)F)N(Cc1ccc(-c2ncon2)cc1F)S(=O)(=O)c1ccc(Cl)cc1 [Avagacestat] + N=C(N)NC(=N)NCCc1ccccc1 [Phenformin] (partner 250 µM)
How it was run: (§1)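 Dosing by pin tool came one day after lung cancer cell lines were seeded in 1536-well plates, using either one drug or a fixed anchor-drug dose plus five library-drug doses (not always all listed) in √10 steps. After 5 days, nuclei were counted on 4× images. Relative viability is treated-well nuclei count divided by vehicle-well nuclei count, and values are medians of duplicate plates.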

[3] = compound: NC(=O)[C@@H](CCC(F)(F)F)N(Cc1ccc(-c2ncon2)cc1F)S(=O)(=O)c1ccc(Cl)cc1 [Avagacestat] + COc1cccc2cc(-c3nc([C@H]4CC[C@H](C(=O)O)CC4)n4ncnc(N)c34)[nH]c12 [OSI-027] (partner 0.5 µM)
How it was run: as §1

[4] = compound: NC(=O)[C@@H](CCC(F)(F)F)N(Cc1ccc(-c2ncon2)cc1F)S(=O)(=O)c1ccc(Cl)cc1 [Avagacestat] + CC(=O)Nc1cccc(-n2c(=O)n(C3CC3)c(=O)c3c(Nc4ccc(I)cc4F)n(C)c(=O)c(C)c32)c1 [Trametinib] (partner 0.02 µM)
How it was run: as §1

Cell Line	relative viability ([1]; 0.08 µM)	relative viability ([1]; 0.253 µM)	relative viability ([1]; 0.8 µM)	relative viability ([1]; 2.53 µM)	relative viability ([1]; 8 µM)	relative viability ([2]; first compound 0.08 µM)	relative viability ([2]; first compound 0.253 µM)	relative viability ([2]; first compound 0.8 µM)	relative viability ([2]; first compound 2.53 µM)	relative viability ([2]; first compound 8 µM)	relative viability ([3]; first compound 0.08 µM)	relative viability ([3]; first compound 0.253 µM)	relative viability ([3]; first compound 0.8 µM)	relative viability ([3]; first compound 2.53 µM)	relative viability ([3]; first compound 8 µM)	relative viability ([4]; first compound 0.08 µM)	relative viability ([4]; first compound 0.253 µM)	relative viability ([4]; first compound 0.8 µM)	relative viability ([4]; first compound 2.53 µM)	relative viability ([4]; first compound 8 µM)
201T	0.995	1	1.1	0.927	0.965	0.55	0.514	0.471	0.424	0.424	0.803	0.988	0.942	0.529	0.76	0.732	0.749	0.761	0.691	0.625
A549	1.1	1.37	1.15	1.03	0.993	0.276	0.218	0.181	0.226	0.538	–	–	–	–	–	–	–	–	–	–
A-427	1.12	1.12	1.17	1.07	1.08	0.312	0.27	0.312	0.268	0.296	0.543	0.474	0.421	0.403	0.445	0.84	0.898	0.71	0.694	0.742
ABC-1	1.1	1.25	1.26	1.14	0.877	0.232	0.228	0.221	0.25	0.263	0.442	0.537	0.637	0.401	0.418	–	–	–	–	–
BEN	1.13	1.02	1.06	0.959	0.917	0.262	0.274	0.271	0.25	0.26	0.313	0.303	0.544	0.303	0.327	1.1	1.18	1.05	0.917	1.13
CAL-12T	1.09	1.12	1.11	1.11	1.04	0.721	0.578	0.662	0.614	0.403	1.01	0.873	0.957	0.841	0.607	0.407	0.417	0.418	0.413	0.443
COR-L23	1.16	1.24	0.989	0.921	0.901	0.463	0.444	0.423	0.435	0.359	1.06	1.02	0.906	0.697	0.661	0.765	0.741	0.818	0.632	0.414
COR-L 105	0.955	1.07	0.923	0.876	0.633	0.534	0.407	0.448	0.397	0.429	0.614	0.687	0.74	0.525	0.486	0.401	0.45	0.457	0.42	0.474
Calu-6	1.15	1.22	1.13	1.07	1.04	–	–	–	–	–	–	–	–	–	–	–	–	–	–	–
ChaGo-K-1	1.13	0.948	0.969	0.99	0.889	0.599	0.53	0.511	0.49	0.514	0.659	0.655	0.6	0.456	0.451	0.95	0.933	0.897	0.817	0.797
EKVX	1.17	1.07	1.19	0.886	0.871	0.234	0.259	0.278	0.256	0.229	0.675	0.687	0.72	0.461	0.659	0.468	0.39	0.348	0.303	0.298
EMC-BAC-2	1.22	1.08	1.15	1.08	1.1	0.518	0.607	0.574	0.522	0.489	0.364	0.445	0.429	0.396	0.364	0.986	1.2	1.05	0.955	1.02
EPLC-272H	0.989	0.922	1.07	1	0.911	0.309	0.321	0.321	0.306	0.328	0.274	0.259	0.326	0.226	0.28	0.309	0.295	0.316	0.333	0.248
H3255	1.04	1.06	1.08	1.01	0.988	0.357	0.352	0.326	0.353	0.431	0.642	0.74	0.828	0.625	0.621	0.673	0.644	0.777	0.569	0.589
HARA	0.891	1.17	1.06	0.963	0.989	0.486	0.516	0.42	0.486	0.42	0.603	0.57	0.484	0.383	0.49	0.704	0.764	0.757	0.536	0.647
HCC-15	1.17	1.19	1.13	1	0.946	0.617	0.592	0.512	0.491	0.378	0.757	0.881	0.776	0.644	0.717	0.395	0.44	0.391	0.394	0.374
HCC-44	0.999	0.999	0.997	0.968	0.935	0.167	0.171	0.198	0.21	0.195	0.474	0.457	0.673	0.528	0.499	1.05	1.02	1.05	0.98	1.03
